Results reported in article PMC11393453, “Phosphorylation of tau at a single residue inhibits binding to the E3 ubiquitin ligase, CHIP” (Nature Communications, 2024).
Like-named read-outs stand apart in the source and are kept apart here.

Columns and labels:
[1] = tested on: endogenous CHIP; test: Co-immunoprecipitation of endogenous CHIP with GFP-tau proteoforms; type: cell-based; conditions: Fig 3E
Description: Fig. 3 TauC3 Ser416 phosphorylation regulates CHIP-dependent tau homeostasis. A In vitro ubiquitination of tau proteoforms by CHIP. Samples were collected at the denoted timepoints, quenched in SDS-PAGE loading buffer, and analyzed by western blot. B Quantification of unmodified tau remaining following in vitro ubiquitination of varying tau proteoforms by CHIP. Unmodified tau remaining was analyzed by densitometry, normalized to 0-min time point, and curves were fit using one-phase exponential decay (n = 3 technical replicates). C Cartoon schematic depicting promoter architecture and varying C-terminal sequences for HEK293 FlpIn T-Rex cells expressing doxycycline inducible GFP-tau proteoforms. D Representative fluorescence micrographs for GFP-tau cells. Images show tau species associated with microtubules (green, false color), while nuclei are stained with Hoechst 33342 (blue, false color). Scale bar = 30 µm. Images are representative of three separate acquisitions. E Co-immunoprecipitation assay following IP of varying tau species from cells. Whole cell lysate (input) was used for loading controls, and co-immunoprecipitated CHIP was analyzed by western blot. Experiment was repeated in duplicate. F Representative western blot showing differing abundance of various tau proteoforms in HEK293 FlpIn T-Rex cells. Experiment was repeated in duplicate. G Quantification of tau protein abundance taken from three independent biological experiments. Tau:tubulin ratio was determined by densitometry and normalized to full-length tau. Error bars represent SD. Statistical significance was determined by one-way ANOVA with Tukey’s post hoc analysis. H Quantification of MAPT mRNA from three independent biological experiments. MAPT mRNA was normalized to GAPDH and shown relative to full-length tau. Error bars represent SD. Statistical significance was determined by one-way ANOVA with Tukey’s post hoc analysis.
Cells were washed once in 1X Dulbecco’s Phosphate Buffered Saline (D-PBS) and lysed in ice cold Pierce Immunoprecipitation (IP) lysis buffer (25 mM Tris-HCl pH 7.4, 150 mM NaCl, 1 mM EDTA, 1% NP-40). Lysates were collected by scraping, transferred to 1.5 mL microcentrifuge tubes, and incubated on ice for 15 min. […] Relative protein concentrations were determined by bicinchoninic acid assay (Pierce), and samples were normalized to the lowest protein concentration. […]
For tau immunoprecipitations, an aliquot (30 µL) of Protein A/G PLUS-agarose (Santa Cruz Biotech) per condition was collected and washed twice in ice cold IP lysis buffer. […] Inputs and eluates were subsequently analyzed by SDS-PAGE followed by western blotting. Quantification was performed by densitometry analysis in ImageJ (NIH).

[2] = molecular target: CHIP; test: CHIP-tau binding ELISA (tau proteoforms on immobilized CHIP); conditions: Fig 1D

## tau: full length (FL) 0N4R splice isoform of tau, unmodified; recombinant or expressed in cells
[1]; IntDen quantification, with induction
  CHIP/tau: 1.597
[1]; IntDen quantification, with induction, relative to tauC3
  Relative Binding: 1.645
[1]; second quantification
  CHIP/Tau normalized to tauC3: 0.04136
[1]; second quantification, CHIP over total tau (D-8)
  CHIP/Tau: 0.03219
[2]; replicate 1
  Kd: 5.98 µM
[2]; replicate 2
  Kd: 6.43 µM
[2]; replicate 3
  Kd: 6.35 µM
[2]; read-out: transformed Kd, replicate 1
  Kd: 5.98 µM
[2]; read-out: transformed Kd, replicate 2
  Kd: 6.43 µM
[2]; read-out: transformed Kd, replicate 3
  Kd: 6.35 µM
